Assay results as given in patent US9944618B2, “Inhibiting neurotransmitter reuptake” (Mayo Foundation for Medical Education and Research, priority 2013, dated 2018).
Like-named read-outs stand apart in the source and are kept apart here.

How the values were obtained:
[1] = biological target: human norepinephrine transporter (Homo sapiens (Human), UniProt P23975); assay: Human NET (norepinephrine transporter) uptake assay; format: cell-based; conditions: read-out: hNET Ki
Procedure, shortened: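 HEK293F cells transfected with human NET were thawed, plated at about 60,000 cells/well and held at 37 °C for at least 3 h. Compounds came from 10 mM DMSO stocks, with nomifensine as control, in 1×HBSS/0.02 M HEPES. Uptake was followed with a neurotransmitter transporter dye, dosed as % of vendor reconstitution, in triplicate.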

[2] = biological target: human dopamine transporter (Homo sapiens (Human), UniProt Q01959); assay: Human DAT (dopamine transporter) uptake assay; format: cell-based; conditions: read-out: hDAT Ki
human dopamine transporter, sequence (Q01959 whole entry): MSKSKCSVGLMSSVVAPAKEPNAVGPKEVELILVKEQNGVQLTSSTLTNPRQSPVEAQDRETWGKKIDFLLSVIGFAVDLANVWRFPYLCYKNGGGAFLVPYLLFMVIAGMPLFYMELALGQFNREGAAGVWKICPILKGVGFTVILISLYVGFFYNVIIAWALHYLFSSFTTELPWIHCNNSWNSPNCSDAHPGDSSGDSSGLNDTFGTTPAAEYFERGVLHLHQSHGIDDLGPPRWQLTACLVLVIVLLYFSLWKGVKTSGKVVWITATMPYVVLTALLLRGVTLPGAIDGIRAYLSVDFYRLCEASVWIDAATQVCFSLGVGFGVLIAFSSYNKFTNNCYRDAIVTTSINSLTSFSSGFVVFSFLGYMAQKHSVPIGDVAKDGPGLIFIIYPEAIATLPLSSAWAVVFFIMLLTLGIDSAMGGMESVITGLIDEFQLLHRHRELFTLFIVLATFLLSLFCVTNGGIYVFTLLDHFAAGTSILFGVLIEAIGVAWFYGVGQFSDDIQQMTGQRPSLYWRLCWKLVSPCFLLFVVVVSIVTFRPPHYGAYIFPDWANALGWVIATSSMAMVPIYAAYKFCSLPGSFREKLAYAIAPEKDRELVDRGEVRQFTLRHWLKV
Procedure, shortened: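 Uptake inhibition was measured in HEK293F cells transfected with human DAT, plated at ~60,000 cells/well and settled ≥3 h at 37 °C. Compounds came from 10 mM DMSO stocks. Read-out was uptake of a fluorescent neurotransmitter transporter dye in HBSS with 0.02 M HEPES, with dye level given as % of vendor reconstitution; n=3.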

[3] = biological target: human serotonin transporter (Homo sapiens (Human), UniProt P31645); assay: Human SERT (serotonin transporter) uptake assay; format: cell-based; conditions: read-out: hSERT Ki
human serotonin transporter, sequence (P31645 whole entry): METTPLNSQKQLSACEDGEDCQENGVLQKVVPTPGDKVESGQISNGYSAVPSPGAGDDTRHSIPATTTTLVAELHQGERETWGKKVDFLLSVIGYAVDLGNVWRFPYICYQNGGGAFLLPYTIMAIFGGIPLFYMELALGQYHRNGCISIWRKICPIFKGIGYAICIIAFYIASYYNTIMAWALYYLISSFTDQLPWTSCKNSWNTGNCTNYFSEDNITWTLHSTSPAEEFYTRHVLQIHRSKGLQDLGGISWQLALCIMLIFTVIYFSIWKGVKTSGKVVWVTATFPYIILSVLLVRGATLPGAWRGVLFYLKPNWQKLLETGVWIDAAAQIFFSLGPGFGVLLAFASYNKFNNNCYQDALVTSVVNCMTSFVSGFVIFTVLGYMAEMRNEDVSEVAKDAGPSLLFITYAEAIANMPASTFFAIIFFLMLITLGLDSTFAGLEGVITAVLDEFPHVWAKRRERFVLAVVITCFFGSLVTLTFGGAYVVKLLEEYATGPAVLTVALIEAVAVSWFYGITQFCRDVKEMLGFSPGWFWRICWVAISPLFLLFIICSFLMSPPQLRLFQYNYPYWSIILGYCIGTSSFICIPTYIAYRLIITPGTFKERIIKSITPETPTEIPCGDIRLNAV
Procedure, shortened: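 HEK293F cells transfected with human SERT, about 60,000 per well, settled for ≥3 h at 37° C before compound addition. Uptake was followed with a fluorescent transporter dye in HBSS with 0.02 M HEPES. Background came from 10 μM fluoxetine, nomifensine was the control, n=3.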

hERG = hERG (Homo sapiens (Human), UniProt Q12809); assay: Human ERG (hERG) assay, hERG currents in hERG-expressing CHO cells; format: cell-based; conditions: hERG-expressing CHO cells
hERG, sequence (Q12809 whole entry): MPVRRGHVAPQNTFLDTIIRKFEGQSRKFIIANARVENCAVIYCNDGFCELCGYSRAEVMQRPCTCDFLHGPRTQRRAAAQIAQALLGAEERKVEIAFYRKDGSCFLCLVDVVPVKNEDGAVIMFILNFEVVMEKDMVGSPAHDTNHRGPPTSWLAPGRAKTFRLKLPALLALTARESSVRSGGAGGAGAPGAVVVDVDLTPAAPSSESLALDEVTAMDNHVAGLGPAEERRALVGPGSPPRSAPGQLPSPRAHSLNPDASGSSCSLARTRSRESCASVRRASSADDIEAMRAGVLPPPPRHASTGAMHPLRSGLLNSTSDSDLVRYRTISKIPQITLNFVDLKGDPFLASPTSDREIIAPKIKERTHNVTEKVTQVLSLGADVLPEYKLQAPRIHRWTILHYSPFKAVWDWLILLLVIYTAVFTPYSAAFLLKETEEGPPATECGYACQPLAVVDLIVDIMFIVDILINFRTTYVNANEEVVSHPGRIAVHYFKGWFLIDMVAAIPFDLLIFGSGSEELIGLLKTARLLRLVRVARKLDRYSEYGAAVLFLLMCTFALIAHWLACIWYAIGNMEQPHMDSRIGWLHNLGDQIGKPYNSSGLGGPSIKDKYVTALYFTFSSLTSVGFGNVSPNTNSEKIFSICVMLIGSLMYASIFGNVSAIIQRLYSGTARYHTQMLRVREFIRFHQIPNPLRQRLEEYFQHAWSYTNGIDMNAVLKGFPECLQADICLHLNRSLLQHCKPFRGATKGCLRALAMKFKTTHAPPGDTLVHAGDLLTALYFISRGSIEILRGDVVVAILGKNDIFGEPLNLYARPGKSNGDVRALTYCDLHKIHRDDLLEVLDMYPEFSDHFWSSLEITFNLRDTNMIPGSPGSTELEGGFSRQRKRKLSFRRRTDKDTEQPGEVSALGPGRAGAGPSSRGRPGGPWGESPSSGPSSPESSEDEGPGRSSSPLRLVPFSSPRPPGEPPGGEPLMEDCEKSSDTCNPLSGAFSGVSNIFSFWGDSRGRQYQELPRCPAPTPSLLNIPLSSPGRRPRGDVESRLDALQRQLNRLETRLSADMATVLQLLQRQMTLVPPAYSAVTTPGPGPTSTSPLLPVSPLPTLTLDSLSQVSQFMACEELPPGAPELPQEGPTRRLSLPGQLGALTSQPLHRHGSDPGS

CYP3A4 = CYP3A4 (Homo sapiens (Human), UniProt P08684); assay: Cytochrome P450 inhibition assay, recombinant CYP3A4 (BFC substrate); format: in vitro ADME; conditions: recombinant enzyme
CYP3A4, sequence (P08684 whole entry): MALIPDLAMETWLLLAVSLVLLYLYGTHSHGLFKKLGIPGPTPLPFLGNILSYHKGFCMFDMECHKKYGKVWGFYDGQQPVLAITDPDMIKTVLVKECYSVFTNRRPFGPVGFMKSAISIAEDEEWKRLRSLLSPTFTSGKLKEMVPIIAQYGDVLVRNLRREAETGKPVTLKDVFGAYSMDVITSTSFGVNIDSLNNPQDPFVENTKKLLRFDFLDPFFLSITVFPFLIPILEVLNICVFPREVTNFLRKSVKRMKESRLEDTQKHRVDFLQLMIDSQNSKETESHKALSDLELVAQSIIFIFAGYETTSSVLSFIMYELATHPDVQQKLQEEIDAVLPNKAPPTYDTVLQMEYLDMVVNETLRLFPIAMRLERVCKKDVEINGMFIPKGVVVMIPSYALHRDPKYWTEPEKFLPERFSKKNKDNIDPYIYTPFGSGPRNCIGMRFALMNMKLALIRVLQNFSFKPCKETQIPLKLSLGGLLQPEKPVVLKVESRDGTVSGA

CYP2D6 = CYP2D6 (Homo sapiens (Human), UniProt P10635); assay: Cytochrome P450 inhibition assay, recombinant CYP2D6 (MAMC substrate); format: in vitro ADME; conditions: recombinant enzyme
CYP2D6, sequence (P10635 whole entry): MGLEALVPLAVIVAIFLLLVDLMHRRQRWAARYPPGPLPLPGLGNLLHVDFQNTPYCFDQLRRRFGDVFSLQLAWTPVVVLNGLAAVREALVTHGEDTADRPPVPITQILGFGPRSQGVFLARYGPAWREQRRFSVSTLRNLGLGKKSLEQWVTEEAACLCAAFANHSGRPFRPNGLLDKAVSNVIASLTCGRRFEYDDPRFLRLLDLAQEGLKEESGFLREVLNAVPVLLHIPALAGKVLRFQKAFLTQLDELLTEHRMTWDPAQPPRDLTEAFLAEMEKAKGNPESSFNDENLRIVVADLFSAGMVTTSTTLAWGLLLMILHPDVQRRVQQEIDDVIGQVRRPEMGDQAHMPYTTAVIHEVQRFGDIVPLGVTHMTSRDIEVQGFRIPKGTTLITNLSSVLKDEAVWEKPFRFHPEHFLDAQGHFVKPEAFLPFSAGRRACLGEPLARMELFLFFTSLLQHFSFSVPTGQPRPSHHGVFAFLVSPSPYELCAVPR

[4] = pKa of basic centres (Table 1); format: physicochemical
[5] = first base, e.g., an aliphatic primary, secondary, or tertiary amine, read-out: pKa (Base 1)
[6] = first base, e.g., an aliphatic primary, secondary, or tertiary amine
[7] = second base in the same molecule (if present), read-out: pKa (Base 2)

human norepinephrine transporter, sequence (P23975 whole entry): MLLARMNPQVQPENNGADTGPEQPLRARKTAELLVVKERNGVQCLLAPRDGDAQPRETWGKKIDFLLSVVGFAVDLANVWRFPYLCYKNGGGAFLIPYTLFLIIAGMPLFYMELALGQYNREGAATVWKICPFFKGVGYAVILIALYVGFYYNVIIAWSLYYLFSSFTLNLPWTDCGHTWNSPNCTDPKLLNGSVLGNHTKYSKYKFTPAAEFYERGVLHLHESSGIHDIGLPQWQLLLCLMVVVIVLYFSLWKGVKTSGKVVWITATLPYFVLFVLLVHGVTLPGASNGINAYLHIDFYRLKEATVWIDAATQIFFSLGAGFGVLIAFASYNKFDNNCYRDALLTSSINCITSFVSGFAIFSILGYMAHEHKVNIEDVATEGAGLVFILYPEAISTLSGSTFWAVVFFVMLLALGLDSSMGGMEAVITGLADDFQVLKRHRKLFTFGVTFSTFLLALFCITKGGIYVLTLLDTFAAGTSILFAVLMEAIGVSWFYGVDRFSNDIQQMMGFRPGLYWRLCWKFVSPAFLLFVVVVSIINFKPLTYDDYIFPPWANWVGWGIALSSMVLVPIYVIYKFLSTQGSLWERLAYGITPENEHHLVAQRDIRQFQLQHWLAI

Ki [1] [nM] | Ki [2] [nM] | Ki [3] [nM] | IC50 (CYP3A4) [nM] | IC50 (CYP2D6) [nM] | pKa [4, 5] | pKa [4, 7] | SMILES | IC50 (hERG) [nM] | pKa (Base 1) [4, 6]
7.5 | 18.1 | 243 | 7800 | 43 | 9.3 |  | CNC[C@H](c1ccc(Cl)c(Cl)c1)[C@@H](O)c1ccccc1[N+](=O)[O-] [Compound 65] | 19000 | 
8.1 | 28.9 | 46.7 | 20000 | 260 | 10.1 |  | CNCC(CCc1ccccc1)[C@H](O)c1ccccc1 (stereo partly drawn) [Compound 66] | 15000 | 
8.2 | 69.7 | 0.7 | 20000 | 330 | 9.6 |  | CNC[C@H](c1ccc2ccccc2c1)[C@H](OCc1nc(C)no1)c1ccccc1 [Compound 67] | 15000 | 
9.5 | 48.5 | 142 | 20000 | 220 | 9.4 |  | CNC[C@H](c1ccc(Cl)c(Cl)c1)[C@@H](O)c1ccccc1 [Compound 70] | 31000 | 
10.3 | 109 | 13.6 | 8100 | 790 |  | 5.2 | CNCC(Cc1cccnc1)c1ccc2ccccc2c1 (stereo not drawn) [Compound 74] | 20000 | 9.9
11.9 | 21.2 | 222 | 3600 | 140 | 9.4 |  | CNC[C@H](c1ccc(Cl)c(Cl)c1)[C@H](O)c1cccc(Br)c1 [Compound 76] | 3000 | 
14.3 | 26.1 | 15.3 | 20000 | 1100 | 9.7 |  | CNC[C@@H](c1ccc2ccccc2c1)[C@@H](O)c1ccccc1F [Compound 78] | 12000 | 
15.3 | 9.8 | 15.3 | 20000 | 990 | 9 | 8.3 | CN(C)C[C@H](c1ccc2ccccc2c1)[C@H](N)c1ccccc1 [Compound 82] | 19000 | 
16.4 | 247 | 16.1 | 20000 | 1000 | 10.1 |  | CNCC(C[C@H](O)c1ccccc1)c1ccc2ccccc2c1 (stereo partly drawn) [Compound 85] | 21000 | 
16.7 | 9.9 | 2.7 | 20000 | 290 | 9.2 |  | CN(C)CC(C)(c1ccc2ccccc2c1)C(O)c1ccccc1 (stereo not drawn) [Compound 86] | 850 | 
18.1 | 114 | 6.1 | 940 | 66 | 9.8 | 8.5 | CNC[C@H](c1ccc2ccccc2c1)[C@H](N)c1ccccc1 [Compound 87] | 17000 | 
21.4 | 25 | 1.8 | 20000 | 1800 | 8.9 |  | CN(C)C[C@H](c1ccc2ccccc2c1)[C@H](OCCO)c1ccccc1 [Compound 89] | 6600 | 
28 | 216 | 9.3 | 20000 | 810 | 9.6 | 4.5 | CNC[C@H](c1ccc2ccccc2c1)[C@H](O)c1cncc(OC)c1 [Compound 92] | 33000 | 
32.8 | 52.6 | 367 | 18000 | 3000 | 9.4 |  | CNC[C@H](c1ccc(Cl)c(Cl)c1)[C@@H](O)c1cccc(NC(C)=O)c1 [Compound 94] | 33000 | 
33.5 | 30.7 | 36.9 | 11000 | 410 | 8 |  | NC[C@H](c1ccc2ccccc2c1)[C@@H](O)c1ccncc1Cl [Compound 95] | 33000 | 
36.8 | 158 | 9.9 | 20000 | 1100 | 9.7 |  | CNC[C@@H](c1ccc2ccccc2c1)[C@H](O)c1ccccc1F [Compound 96] | 33000 | 
38.2 | 22.6 | 78.4 | 15000 | 180 | 9.4 |  | CNC[C@H](c1ccc(Cl)c(Cl)c1)[C@@H](O)c1ccccc1SC [Compound 97] | 8000 | 
38.8 | 216 | 167 | 20000 | 850 | 9.4 |  | CNC[C@@H](c1ccc(Cl)c(Cl)c1)[C@H](O)c1cccc(NC(C)=O)c1 [Compound 98] | 33000 | 
41 | 287 | 43.2 | ≥ 20000 | 3600 | 9.6 | 4.1 | CNC[C@@H](c1ccc2ccccc2c1)[C@H](O)c1ccccn1 [Compound 99] | 33000 | 
43.8 | 27.4 | 361 | 8200 | 64 | 9.4 |  | CNC[C@H](c1ccc(Cl)c(Cl)c1)[C@@H](O)c1ccccc1-c1cccs1 [Compound 100] | 21000 | 
252 | 139 | 36.6 | 20000 | 3900 | 8 |  | NC[C@@H](c1ccc2ccccc2c1)C(O)c1ccncc1Cl (stereo partly drawn) [Compound 118] | 24000 | 
6 | 56.8 | 7.8 | 9900 | 220 | 10.1 |  | CNCC(Cc1ccccc1C)c1ccc2ccccc2c1 (stereo not drawn) [Compound 134] | 6200 | 
5 | 88.7 | 6.4 | 13000 | 620 | 10 |  | CNCC(Cc1ccc(C)s1)c1ccc2ccccc2c1 (stereo not drawn) [Compound 139] | 3100 | 
6.6 | 106 | 7.9 | 7600 | 160 | 9.7 |  | CNC[C@H](c1ccc2ccccc2c1)[C@H](O)c1ccc2c(c1)OCCO2 [Compound 143] | 15000 | 
9.3 | 144 | 10.1 | 1300 | 92 | 9.5 |  | CNC[C@H](c1ccc2ccccc2c1)[C@H](Cl)c1ccccc1 [Compound 146] | 15000 | 
37.1 | 40.3 | 38.4 | 6900 | 290 |  |  | CNC[C@@H](c1ccc(Cl)c(Cl)c1)[C@@H](O)c1cccc(SC)c1 [Compound 154] | 2200 | 9.4
17.2 | 48.5 | 22.4 | 9500 | 170 | 9.4 |  | CNC[C@H](c1ccc(Cl)c(Cl)c1)[C@H](O)c1ccccc1SC [Compound 156] | 4100 | 
6.3 | 55.4 | 38.6 | 3800 | 98 | 9.4 |  | CCc1ccccc1[C@@H](O)[C@H](CNC)c1ccc(Cl)c(Cl)c1 [Compound 158] | 4400 | 
9.1 | 83.5 | 9.2 | 3500 | 490 | 9.4 |  | CNC[C@H](c1ccc(Cl)c(Cl)c1)[C@H](O)c1ccccc1OC [Compound 160] | 8000 | 
41.6 | 113 | 78.1 | 5300 | 250 | 9.4 |  | CNC[C@H](c1ccc(Cl)c(Cl)c1)[C@H](O)c1ccccc1I [Compound 164] | 4100 | 

SMILES | Ki [1] [nM] | Ki [2] [nM] | Ki [3] [nM] | IC50 (CYP3A4) [nM] | IC50 (CYP2D6) [nM] | pKa [4, 5] | pKa [4, 7] | IC50 (hERG) [nM] | pKa (Base 1) [4, 6]
CNCC(Cc1ccccc1O)c1ccc2ccccc2c1 (stereo not drawn) [Compound 69] | 9 | 21.9 | 21.2 | 20000 | 510 |  |  | 9500 | 10
CNC[C@@H](c1ccc(Br)c(Cl)c1)[C@@H](O)c1ccccc1 [Compound 110] | 142 | 24 | 677 | 17000 | 1900 | 9.4 |  | 6800 | 
CNC[C@H](Cc1ccccc1O)c1ccc2ccccc2c1 [Compound 140] | 25.9 | 91.6 | 28.3 | 20000 | 860 | 10 |  | 6100 | 
CNC[C@@H](c1ccc(Cl)c(Cl)c1)[C@@H](O)c1ccsc1 [Compound 153] | 3.9 | 33.8 | 7.5 | 20000 | 1400 |  |  | 1600 | 9.5
